Test results: paper PMC6522510 (Nature Communications, 2019)
Read-outs that look alike come from different tables or passages of the source.

Tests used:
Parameters in all cases: species or system AML cell lines (8); Primary HTS, single concentration about 10 uM, Cell Titer Glo viability; log10 luminescence, per cent inhibition relative to cycloheximide control
Details in all cases: 72 h, relative to cycloheximide control, log10 luminescence, inhibitor
U937 = test system: U937
CHRF288-11 = test system: CHRF288-11
CMK = test system: CMK
MV4-11 = test system: MV4-11
M07e = test system: M07e
MOLM-13 = test system: MOLM-13
CMS = test system: CMS
ML-2 = test system: ML-2

`Nc1nonc1-c1nc2cnccc2n1C1CC1` [SJ000573161-1, SD100950-085A1] showed a U937 %inh (U937) of 17.71%, a CHRF288-11 %inh (CHRF288-11) of 4.079% and a CMK %inh (CMK) of 26.4%. For the same molecule, the MV4-11 %inh (MV4-11) was 17.34%, the M07e %inh (M07e) was -4.33% and the MOLM-13 %inh (MOLM-13) was 2.819%. It also gave a CMS %inh (CMS) of 4.949% and an ML-2 %inh (ML-2) of 6.372%.
`COC(=O)Nc1nc2cc(Oc3ccc(NC(=O)Nc4cccc(C(=O)O)c4)cc3)ccc2[nH]1` [SJ000573163-1, T261/87/3] showed a U937 %inh (U937) of 31.9%, a CHRF288-11 %inh (CHRF288-11) of 17.31% and a CMK %inh (CMK) of 83.28%. For the same molecule, the MV4-11 %inh (MV4-11) was 11.57%, the M07e %inh (M07e) was 13.83% and the MOLM-13 %inh (MOLM-13) was 34.2%. It also gave a CMS %inh (CMS) of 3.532% and an ML-2 %inh (ML-2) of 30.21%.
`NC(=O)c1cccc(Nc2nccc(Nc3cccc(F)c3)n2)c1` [SJ000573164-1, R5869/121/5] showed a U937 %inh (U937) of 1.036%, a CHRF288-11 %inh (CHRF288-11) of 8.575% and a CMK %inh (CMK) of 19.08%. For the same molecule, the MV4-11 %inh (MV4-11) was 21.87%, the M07e %inh (M07e) was 12.07% and the MOLM-13 %inh (MOLM-13) was 57.29%. It also gave a CMS %inh (CMS) of 5.376% and an ML-2 %inh (ML-2) of 3.111%.
For `COC(=O)Nc1nc2cc(Oc3ccc(NC(=O)Nc4ccccc4)cc3)ccc2[nH]1` [SJ000573165-1, T261/64/2], the U937 %inh (U937) was 81.37%, the CHRF288-11 %inh (CHRF288-11) was 29.47% and the CMK %inh (CMK) was 109.7%. It also gave an MV4-11 %inh (MV4-11) of 69.12%, an M07e %inh (M07e) of 91.37% and an MOLM-13 %inh (MOLM-13) of 87.75%. For the same molecule, the CMS %inh (CMS) was 99.63% and the ML-2 %inh (ML-2) was 57.46%.
`Cc1nnc(-c2ccc(C)c(-c3ccc(C(=O)NCc4ccc(Cl)cc4)cc3)c2)o1` [SJ000573166-1, R5419/62/6] gave a U937 %inh (U937) of 3.066%, a CHRF288-11 %inh (CHRF288-11) of -0.1255% and a CMK %inh (CMK) of 2.525%. For the same molecule, the MV4-11 %inh (MV4-11) was -0.3161%, the M07e %inh (M07e) was 6.199% and the MOLM-13 %inh (MOLM-13) was 2.185%. For the same molecule, the CMS %inh (CMS) was 4.153% and the ML-2 %inh (ML-2) was 2.787%.
With `NC(=O)c1sc(-n2cnc3ccc(C(F)(F)F)cc32)cc1OCc1ccccc1Br` [SJ000573167-1, U19121/196/1] the U937 %inh (U937) was 43.5%, the CHRF288-11 %inh (CHRF288-11) was 1.336% and the CMK %inh (CMK) was -1.461%. For the same molecule, the MV4-11 %inh (MV4-11) was 1.988%, the M07e %inh (M07e) was 5.031% and the MOLM-13 %inh (MOLM-13) was 2.5%. The CMS %inh (CMS) was 15.36% and the ML-2 %inh (ML-2) was 22.34%.
Molecule `Nc1nccc(-c2c(-c3ccc(F)cc3)ncn2C2CCNCC2)n1` [SJ000573168-1, JB-19127-269D | LD19161-244A1] has a U937 %inh (U937; U937 %inh, 10 µM) of 27.96%, a CHRF288-11 %inh (CHRF288-11; CHRF288-11 %inh, 10 µM) of 34.51% and a CMK %inh (CMK; CMK %inh, 10 µM) of 44.14%. It also gave an MV4-11 %inh (MV4-11; MV4-11 %inh, 10 µM) of 77.89%, an M07e %inh (M07e; M07e %inh, 10 µM) of 19.95% and an MOLM-13 %inh (MOLM-13; MOLM-13 %inh, 10 µM) of 64.89%. The CMS %inh (CMS; CMS %inh, 10 µM) was 7.951% and the ML-2 %inh (ML-2; ML-2 %inh, 10 µM) was 22.46%.
`Nc1nccc(-c2c(-c3ccc(F)cc3)ncn2C2CCNCC2)n1` [SJ000573168-2, JB-19127-269D | LD19161-244A1] was tested, and the U937 %inh (U937; U937 %inh, 10 µM) was 15.47%, the CHRF288-11 %inh (CHRF288-11; CHRF288-11 %inh, 10 µM) was 101.4% and the CMK %inh (CMK; CMK %inh, 10 µM) was 34.82%. It also gave an MV4-11 %inh (MV4-11; MV4-11 %inh, 10 µM) of 54.74%, an M07e %inh (M07e) of 16.87% and an MOLM-13 %inh (MOLM-13; MOLM-13 %inh, 10 µM) of 78.79%. The CMS %inh (CMS; CMS %inh, 10 µM) was 15.45% and the ML-2 %inh (ML-2; ML-2 %inh, 10 µM) was 28.94%.
For `CC1=C(C(=O)Nc2ccc3[nH]nc(C)c3c2)C(c2ccc(C(F)(F)F)cc2)CC(=O)N1` (centres unmarked) [SJ000573169-1, SD204573-190A1], the U937 %inh (U937) was 19.8%, the CHRF288-11 %inh (CHRF288-11) was 46.87% and the CMK %inh (CMK) was 106.1%. It also gave an MV4-11 %inh (MV4-11) of 29.81%, an M07e %inh (M07e) of 28.71% and an MOLM-13 %inh (MOLM-13) of 15.8%. The CMS %inh (CMS) was 35.88% and the ML-2 %inh (ML-2) was 13.81%.
Molecule `OCCCNc1nccc(-c2c(-c3ccc(F)cc3)nn3cc(C(F)(F)F)ccc23)n1` [SJ000573170-1, R5361/115/1] has a U937 %inh (U937) of 1.034%, a CHRF288-11 %inh (CHRF288-11) of 127.7% and a CMK %inh (CMK) of 125%. It also gave an MV4-11 %inh (MV4-11) of -0.4985%, an M07e %inh (M07e) of -1.662% and an MOLM-13 %inh (MOLM-13) of -2.069%. For the same molecule, the CMS %inh (CMS) was 105.9% and the ML-2 %inh (ML-2) was -1.781%.
For `c1ccc(COc2ccc(Nc3ncnc4ccc(-c5ccco5)cc34)cc2)cc1` [SJ000573171-1, C3157/71/1], the U937 %inh (U937) was 10.84%, the CHRF288-11 %inh (CHRF288-11) was -4.196% and the CMK %inh (CMK) was 6.655%. For the same molecule, the MV4-11 %inh (MV4-11) was 14.65%, the M07e %inh (M07e) was -0.2498% and the MOLM-13 %inh (MOLM-13) was 27.04%. For the same molecule, the CMS %inh (CMS) was 1.088% and the ML-2 %inh (ML-2) was 3.492%.
`O=C1NC(=O)C(c2cccc(Cl)c2)=C1Nc1ccc(O)c(Cl)c1` [SJ000573172-1, RS98844-062A3] gave a U937 %inh (U937) of 3.736%, a CHRF288-11 %inh (CHRF288-11) of 12.93% and a CMK %inh (CMK) of 35.38%. It also gave an MV4-11 %inh (MV4-11) of 8.124%, an M07e %inh (M07e) of 6.042% and an MOLM-13 %inh (MOLM-13) of 11.18%. For the same molecule, the CMS %inh (CMS) was 2.425% and the ML-2 %inh (ML-2) was 2.635%.
For `c1ccc(-c2nc3n(c2-c2ccc4c(c2)OCO4)CCC3)nc1` [SJ000573174-1, JB42196-142B1], the U937 %inh (U937) was 1.96%, the CHRF288-11 %inh (CHRF288-11) was 104.5% and the CMK %inh (CMK) was 48.28%. It also gave an MV4-11 %inh (MV4-11) of 4.462%, an M07e %inh (M07e) of 7.377% and an MOLM-13 %inh (MOLM-13) of 37.41%. For the same molecule, the CMS %inh (CMS) was 32.28% and the ML-2 %inh (ML-2) was 5.523%.
`CN(c1ccc(NC(=O)NCCN2CCOCC2)cc1)c1ccnc(Nc2ccc(CS(C)(=O)=O)cc2)n1` [SJ000573175-1, U17983/92/2] was tested, and the U937 %inh (U937) was 4.061%, the CHRF288-11 %inh (CHRF288-11) was -0.5072% and the CMK %inh (CMK) was -0.4287%. For the same molecule, the MV4-11 %inh (MV4-11) was 85.52%, the M07e %inh (M07e) was 2.849% and the MOLM-13 %inh (MOLM-13) was 82.21%. The CMS %inh (CMS) was 0.2292% and the ML-2 %inh (ML-2) was 2.492%.
Work on `Oc1cccc(-c2nc(-c3ccccc3)[nH]c2-c2ccncc2)c1` [SJ000573176-1, KH49127-012A1] yielded a U937 %inh (U937) of 2.636%, a CHRF288-11 %inh (CHRF288-11) of 2.324% and a CMK %inh (CMK) of 4.668%. For the same molecule, the MV4-11 %inh (MV4-11) was 3.826%, the M07e %inh (M07e) was 1.15% and the MOLM-13 %inh (MOLM-13) was 8.153%. It also gave a CMS %inh (CMS) of 5.24% and an ML-2 %inh (ML-2) of 2.359%.
`CCN(CC)S(=O)(=O)c1ccc(OC)c(Nc2ncc(-c3ccccc3)o2)c1` [SJ000573177-1, U14961/35/1] was tested, and the U937 %inh (U937) was 3.148%, the CHRF288-11 %inh (CHRF288-11) was -8.829% and the CMK %inh (CMK) was 11.05%. The MV4-11 %inh (MV4-11) was 74.67%, the M07e %inh (M07e) was -3.903% and the MOLM-13 %inh (MOLM-13) was 13.29%. For the same molecule, the CMS %inh (CMS) was 2.203% and the ML-2 %inh (ML-2) was 1.232%.
`COc1cccc(-n2nc(C)c3c(N/N=C(\C)c4ccncc4)ncnc32)c1` [SJ000573178-1, U17747/163/1] showed a U937 %inh (U937) of -2.387%, a CHRF288-11 %inh (CHRF288-11) of -4.056% and a CMK %inh (CMK) of -0.9949%. It also gave an MV4-11 %inh (MV4-11) of -0.7035%, an M07e %inh (M07e) of -1.478% and an MOLM-13 %inh (MOLM-13) of -1.351%. For the same molecule, the CMS %inh (CMS) was 0.07052% and the ML-2 %inh (ML-2) was -1.055%.
`O=C1NC(=O)C(c2cccc(Cl)c2)=C1Nc1ccc(Cl)c(C(=O)O)c1` [SJ000573179-1, RS98844-062A1] gave a U937 %inh (U937) of 1.114%, a CHRF288-11 %inh (CHRF288-11) of -5.305% and a CMK %inh (CMK) of -1.769%. It also gave an MV4-11 %inh (MV4-11) of -0.02775%, an M07e %inh (M07e) of -0.5868% and an MOLM-13 %inh (MOLM-13) of -0.7042%. For the same molecule, the CMS %inh (CMS) was -1.594% and the ML-2 %inh (ML-2) was 0.225%.
`Nc1nccc(-c2c(-c3ccc(F)cc3)ncn2CCCN2CCOCC2)n1` [SJ000573180-1, TG19207-124A1] was tested, and the U937 %inh (U937) was 3.947%, the CHRF288-11 %inh (CHRF288-11) was -0.01823% and the CMK %inh (CMK) was -0.5604%. For the same molecule, the MV4-11 %inh (MV4-11) was 0.7283%, the M07e %inh (M07e) was 1.031% and the MOLM-13 %inh (MOLM-13) was -0.9293%. The CMS %inh (CMS) was -3.18% and the ML-2 %inh (ML-2) was 2.942%.
